Data set [1] concerns CHMC cells. Description: ionomycin-induced calcium ion flux in CHMC cells. The data set is classed as cell-based, human. Conditions: 10 μM compound.
The test system of data set [2] is FcεR1-mediated degranulation in mast cells. Description: FcεRI-mediated (anti-IgE induced) degranulation assay in mast cells. The data set is classed as cell-based. To be noted: Mast cell; range stated for the whole listed group of compounds; read-out: inhibition of FcεR1-mediated degranulation in mast cells (IC50s).
Data set [3] relates to CHMC cells. Description: anti-IgE-induced calcium ion flux in CHMC cells. The data set is classed as cell-based, human. Conditions: 10 μM compound.
In data set [4] the test system is proteins downstream of Syk kinase and LYN kinase in activated CHMC cells. Description: Phosphorylation of proteins in the FcεRI signal transduction cascade in activated CHMC cells. It counts as cell-based, human. Conditions: FIG. 10.
Data set [5] is described as follows: Sheep model of allergic asthma (Ascaris suum challenge). It counts as in vivo. To be noted: administered in an aqueous suspension. The procedure: Sheep develop bronchoconstriction within minutes of exposure to inhaled antigen (Ascaris suum), with maximal airflow obstruction during the early allergic response (EAR). Release of preformed mast cell mediators is likely responsible for this early phase of airflow obstruction. […] In the sheep, AHR develops a few hours following antigen challenge, and can persist for up to 2 weeks.
In the sheep model of allergic asthma, sheep are administered aerosols of test article via an endotracheal tube, followed by an aerosol challenge with antigen extracted from the roundworm, Ascaris suum, to which the sheep are naturally allergic. Allergen challenge leads to direct bronchoconstriction (both EAR and LAR) and a persistent non-specific AHR. These three characteristics are similar to those seen in human allergic asthmatics. The activity of the test agent is determined by changes in the lung resistance (RL), which is calculated from measurements of transpulmonary pressure, flow, and respiratory volume. […] The LAR is a less pronounced increase in RL, which starts approximately 5-6 hours following allergen challenge and is resolved by 8 hours post-challenge. Twenty-four hours after the challenge, a dose response to carbachol is measured to determine the AHR, which is expressed as the dose of carbachol required to increase RL by 400% over baseline. […]

For data set [6], the system named is IgE-induced degranulation of tissue mast cells. Description: Mouse model of passive cutaneous anaphylaxis (PCA). It counts as in vivo. Conditions: mouse, in vivo. The procedure: This model provides a direct measure of IgE-induced degranulation of tissue mast cells. In this model, IgE primed animals are exposed to an allergen challenge, and the change in permeability of dermal vasculature that results from histamine release from mast cells is measured by change in the amount of dye leakage into surrounding tissue. Inhibition of mediator release by compounds that modulate mast cell degranulation is easily measured by extracting the dye from the tissue.
In the PCA assay mice are passively sensitized by intradermal injection with anti-dinitrophenol (DNP) IgE antibodies (Day −1). At predetermined times animals are treated with the test agent (Day 0). The modulatory effect of the agent on cutaneous mast cell degranulation is measured following intravenous injection of DNP conjugated to human serum albumin (HSA-DNP), together with Evans blue dye. The resulting cross-linking of the IgE receptor and subsequent mast cell degranulation-induced increase in vascular permeability is determined by measuring the amount of dye extravasation into the tissue. Dye is extracted from the tissue by formamide, and the absorbance of this extract is read at 620 nm.

Data set [7] concerns cultured human mast cells (CHMC). Description: CHMC high cell density IgE activation: degranulation (hexos, tryptase, histamine), leukotriene (LTC4) and cytokine (TNFalpha, IL-13) assays. Conditions: anti-IgE activation. The data set is classed as cell-based. Summed up:
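IgE-sensitized CHMC at 1-2×10^6 cells/ml in MT buffer were pretreated with compound for 1 h at 37 °C (0.5% DMSO final), then stimulated with anti-IgE for 1 h. Tryptase was measured in 1:500-diluted supernatant. Pellets were re-incubated for 7 h with compound in CM media, and supernatants were assayed by ELISA.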

The target of the next data set is Syk kinase (Homo sapiens (Human), UniProt P43405). Description: Isolated Syk kinase biochemical assay (phosphorylation of a peptide or endogenous substrate). To be noted: increasing concentrations, FIG. 8.
The format of data set [8] is in vivo. To be noted: 14-day repeat-dose; intranasal in rabbits and primates, oral in mice and rats.
Data set [9] has as its system bone marrow derived mast cells (BMMC). Description: BMMC high cell density IgE activation: degranulation (hexosiminidase, histamine), leukotriene (LTC4) and cytokine (TNFalpha, IL-6) assays. It counts as cell-based. To be noted: Mus musculus, anti-IgE activation, hexosaminidase release, read-out: BMMC anti-IgE hexos IC50.
[10] abbreviates: IL-13, read-out: CHMC high density IL-13.
Setting [11] is: LTC4, read-out: CHMC high density LTC4.
Setting [12] is: TNF-alpha, read-out: CHMC high density TNF-alpha.
The mark [13] stands for this setting: hexosaminidase release, read-out: CHMC high density hexos.
Where [14] appears, read: histamine release, read-out: CHMC high density histamine.
[15] abbreviates: tryptase release, read-out: CHMC high density tryptase.

Read-outs that look alike come from different tables or passages of the source.

With `Oc1cccc(Nc2ncc(F)c(Nc3cccc(O)c3)n2)c1` [Compound R921218, N2,N4-Bis(3-hydroxyphenyl)-5-fluoro-2,4-pyrimidinediamine], the “ionomycin-induced Ca2+ flux” value in the data set with CHMC cells [1] is listed as “no effect on ionomycin-induced Ca^2+ flux”. In addition, the IC50 was 0.03 to 1.65 µM in [2]; 2.08 µM in data set [7] (setting [10]); 0.695 µM in data set [7] (setting [11]); 1.75 µM in data set [7] (setting [12]); 0.464 µM in [7] (setting [13]); 0.463 µM in data set [7] (setting [14]). In addition, the IC50 in data set [7] (setting [15]) turned out to be 0.647 µM. In addition, the “anti-IgE-induced Ca2+ flux” value in the data set with CHMC cells [3] is “inhibited anti-IgE-induced Ca^2+ flux”. The “phosphorylation of proteins downstream of Syk kinase in the FcεRI signal transduction cascade” value in [4] is given as “inhibit phosphorylation”. Moreover, the “effect on the EAR (in words)” value in [5] is listed as “failed to inhibit the EAR”. Moreover, the “inhibition of the PCA response / FcεR-mediated vascular leakage (in words)” value in data set [6] is reported as “dose-dependent inhibition”. Further, the “Syk kinase phosphorylation of an endogenous substrate (LAT) and a peptide substrate” value at Syk kinase is “dose responsive inhibition”. In addition, the dose limiting toxicity result in [8] is given as “no dose limiting toxicity”.

As to `Fc1cnc(Nc2ccc3c(c2)OCCO3)nc1Nc1ccc2c(c1)OCCO2` [Compound R926109, N2,N4-Bis(3,4-ethylenedioxyphenyl)-5-fluoro-2,4-pyrimidinediamine], the IC50 in data set [9] was determined as 0.6 µM; in data set [7] (setting [10]) it was 1.66 µM; in data set [7] (setting [11]), 0.808 µM; in data set [7] (setting [12]), 1.5 µM; in data set [7] (setting [13]) it was 0.783 µM; in data set [7] (setting [14]) it was 1.83 µM. For the same molecule, in [7] (setting [15]), the IC50 was determined as 0.906 µM. Further, in [6], the “inhibition of the PCA response / FcεR-mediated vascular leakage (in words)” value was “dose-dependent inhibition”.

Take `COc1ccc(Nc2ncc(F)c(Nc3cccc(O)c3)n2)cc1OC` [Compound R926113, N2-(3,4-Dimethoxyphenyl)-5-fluoro-N4-(3-hydroxyphenyl)-2,4-pyrimidinediamine]: the IC50 in [9] was determined as 0.65 µM; in data set [7] (setting [10]), 3.57 µM; in data set [7] (setting [11]), 0.468 µM; in data set [7] (setting [12]), 5.68 µM; in data set [7] (setting [13]), 1.45 µM; in data set [7] (setting [14]) it was 1.85 µM. Also, the IC50 in data set [7] (setting [15]) was determined as 1.65 µM.

For the origin of these results see patent publication US10828301B2, “2,4-pyrimidinediamine compounds and their uses” (Rigel Pharmaceuticals, Inc, priority 2002, dated 2020).
